PubChem BioAssay AID1745844 (Carcinogenic Potency Database (CPDB), 2022)
Calls of active or inactive are those of the source. No rule for the calls is given here.

Test system: rodent lifetime carcinogenesis bioassay, tumor incidence TD50
Assay: chronic cancer bioassays in animals – CPDB, compiled studies (AID 1745844)
[1] = mouse, strain B6C3F1, males, in feed, site: any site (literature study), lesion: several types, types named in the paper, dosed 103 weeks, study length 104 weeks
[2] = rat, strain Fischer 344, females, in feed, site: any site (literature study), lesion: several types, types named in the paper, dosed 103 weeks, study length 104 weeks
[3] = rat, strain Fischer 344, males, in feed, site: any site (literature study), lesion: several types, types named in the paper, dosed 103 weeks, study length 104 weeks
[4] = rat, strain Fischer 344, males, in feed, site: liver, lesion: hepatocellular adenoma + hepatocellular carcinoma + neoplastic nodule, dosed 103 weeks, study length 104 weeks

OC[C@@H](O)[C@H]1O[C@@H]2O[C@H](C(Cl)(Cl)Cl)O[C@@H]2[C@H]1O
TD50 (mouse, strain B6AKF1, females, oral dosing, site: any site (literature study), lesion: several types, types named in the paper, dosed 76 weeks, study length 76 weeks): 17.3 mg/kg/day (inactive)
carcinogen call (mouse, strain B6AKF1, females, oral dosing, site: liver, lesion: hepatoma, dosed 76 weeks, study length 76 weeks): negative (inactive)
TD50 (mouse, strain B6AKF1, females, oral dosing, site: lung, lesion: adenoma, dosed 76 weeks, study length 76 weeks): 19.5 mg/kg/day (inactive)
carcinogen call (mouse, strain B6AKF1, males, oral dosing, site: any site (literature study), lesion: several types, types named in the paper, dosed 76 weeks, study length 76 weeks): negative (inactive)
carcinogen call (mouse, strain B6AKF1, males, oral dosing, site: liver, lesion: hepatoma, dosed 76 weeks, study length 76 weeks): negative (inactive)
carcinogen call (mouse, strain B6AKF1, males, oral dosing, site: lung, lesion: adenoma, dosed 76 weeks, study length 76 weeks): negative (inactive)
carcinogen call (mouse, strain B6C3F1, females, oral dosing, site: any site (literature study), lesion: one or several types, types not named, dosed 76 weeks, study length 76 weeks): negative (inactive)
carcinogen call (mouse, strain B6C3F1, females, oral dosing, site: liver, lesion: hepatoma, dosed 76 weeks, study length 76 weeks): negative (inactive)
carcinogen call (mouse, strain B6C3F1, females, oral dosing, site: lung, lesion: several types, types named in the paper, dosed 76 weeks, study length 76 weeks): negative (inactive)
TD50 (mouse, strain B6C3F1, males, oral dosing, site: any site (literature study), lesion: several types, types named in the paper, dosed 76 weeks, study length 76 weeks): 4.07 mg/kg/day (inactive)
TD50 (mouse, strain B6C3F1, males, oral dosing, site: liver, lesion: hepatoma, dosed 76 weeks, study length 76 weeks): 7.27 mg/kg/day (inactive)
TD50 (mouse, strain B6C3F1, males, oral dosing, site: lung, lesion: adenoma, dosed 76 weeks, study length 76 weeks): 11.2 mg/kg/day (inactive)

Cc1cccc(Nc2cc(Cl)nc(SCC(=O)NCCO)n2)c1C
TD50 (mouse, strain CSb, females, in feed, site: liver, lesion: hepatocellular carcinoma, dosed 82 weeks, study length 82 weeks): 44.6 mg/kg/day
TD50 (rat, strain Fischer 344, males, in feed, site: liver, lesion: hepatocellular carcinoma, dosed 75 weeks, study length 82 weeks): 6.49 mg/kg/day

O=c1c(O)c(-c2ccc(O)cc2)oc2cc(O)cc(O)c12
TD50 (rat, strain ACI, females, in feed, site: any site (literature study), lesion: several types, types named in the paper, dosed 77 weeks, study length 77 weeks): 55.3 mg/kg/day (inactive)
TD50 (rat, strain ACI, males, in feed, site: adrenal gland, lesion: cortical adenoma, dosed 77 weeks, study length 77 weeks): 17.9 mg/kg/day (inactive)

OC[C@@H](O)[C@@H](O)[C@H](O)[C@H](O)CO
TD50 (mouse, strain B6C3F1, females, in feed, site: all sites, lesion: hemangiosarcoma, dosed 103 weeks, study length 104 weeks): 46700 mg/kg/day (inactive)
TD50 (mouse, strain B6C3F1, females, in feed, site: all sites, lesion: lymphocytic leukemia, dosed 103 weeks, study length 104 weeks): 48000 mg/kg/day
carcinogen call [1]: negative (inactive)
TD50 (mouse, strain B6C3F1, males, in feed, site: lung, lesion: alveolar/bronchiolar adenoma + alveolar/bronchiolar carcinoma, dosed 103 weeks, study length 104 weeks): 98100 mg/kg/day
TD50 [2]: 5000 mg/kg/day (inactive)
carcinogen call [3]: negative (inactive)
TD50 [4]: 18000 mg/kg/day

CC(=O)N(C(C)=O)c1cccc2c1Cc1ccccc1-2
TD50 (rat, strain Buffalo, females, in feed, site: ear duct, lesion: squamous-cell carcinoma, dosed 53 weeks, study length 93 weeks): 61.2 mg/kg/day
TD50 (rat, strain Buffalo, females, in feed, site: liver, lesion: hemangioma, dosed 53 weeks, study length 93 weeks): 61.2 mg/kg/day
TD50 (rat, strain Buffalo, females, in feed, site: mammary gland, lesion: adenocarcinoma, dosed 53 weeks, study length 93 weeks): 19 mg/kg/day
TD50 (rat, strain Buffalo, females, in feed, site: pituitary gland, lesion: adenoma, dosed 53 weeks, study length 93 weeks): 8.63 mg/kg/day

CCOC(=O)CC(SP(=O)(OC)OC)C(=O)OCC (configuration not stated)
carcinogen call (mouse, strain B6C3F1, females, in feed, site: any site (literature study), lesion: several types, types named in the paper, dosed 103 weeks, study length 103 weeks): negative (inactive)
TD50 (mouse, strain B6C3F1, females, in feed, site: lung, lesion: alveolar/bronchiolar adenoma + alveolar/bronchiolar carcinoma, dosed 103 weeks, study length 103 weeks): 2760 mg/kg/day
TD50 (mouse, strain B6C3F1, males, in feed, site: any site (literature study), lesion: several types, types named in the paper, dosed 103 weeks, study length 103 weeks): 472 mg/kg/day (inactive)
TD50 (mouse, strain B6C3F1, males, in feed, site: liver, lesion: hepatocellular adenoma + hepatocellular carcinoma + neoplastic nodule, dosed 103 weeks, study length 103 weeks): 579 mg/kg/day
TD50 (mouse, strain B6C3F1, males, in feed, site: lung, lesion: alveolar/bronchiolar adenoma + alveolar/bronchiolar carcinoma, dosed 103 weeks, study length 103 weeks): 3230 mg/kg/day
TD50 (rat, strain Fischer 344, females, in feed, site: thyroid gland, lesion: c-cell adenoma + c-cell carcinoma, dosed 103 weeks, study length 104 weeks): 296 mg/kg/day (inactive)
carcinogen call [3]: negative (inactive)
TD50 [4]: 1560 mg/kg/day

Nc1ccc(/C=C/c2ccc(N)c(S(=O)(=O)O)c2)c(S(=O)(=O)O)c1
carcinogen call (mouse, strain B6C3F1, females, in feed, site: any site (literature study), lesion: several types, types named in the paper, dosed 103 weeks, study length 104 weeks): negative (inactive)
TD50 [1]: 12900 mg/kg/day
TD50 (mouse, strain B6C3F1, males, in feed, site: liver, lesion: hepatocellular adenoma + hepatocellular carcinoma + neoplastic nodule, dosed 103 weeks, study length 104 weeks): 9720 mg/kg/day
TD50 (mouse, strain B6C3F1, males, in feed, site: liver, lesion: hepatocellular adenoma, dosed 103 weeks, study length 104 weeks): 2570 mg/kg/day (inactive)
TD50 [2]: 17600 mg/kg/day (inactive)
TD50 [3]: 5810 mg/kg/day (inactive)
TD50 [4]: 5020 mg/kg/day
